Where two headings read alike, the source gives them in different places.
Assays:
[1] = each group with CKD (mild, moderate, severe); cited from earlier work
[2] = system: patients with type 2 diabetes; conditions: head-to-head trial; cited from earlier work
patients with T2D and RI = type: in vivo, human; conditions: for Model-adjusted change from baseline A1C, LS mean (SE): ANCOVA
Description: Therapies for type 2 diabetes mellitus (T2DM) with renal impairment (RI) are limited and may require dose adjustment. This 52-week randomized, double blind, active controlled, Phase III parallel group study examined efficacy/safety of QW Albi injections (30 mg uptitrated to 50 mg if needed) vs daily Sita in patients with T2D and RI (eGFR≧15 and <90 mL/min/1.73 m^2) and A1C 7-10% on lifestyle (11% of subjects) or metformin (Met), thiazoldinedone (TZD), sulfonylureas (SU), or any combination (89% of patients). […] Primary endpoint was A1C change at week 26 for Albi vs Sita (noninferiority with subsequent superiority analysis). Eligible subjects were men or non pregnant, nonlactating women, 18 years of age or older, with a historical diagnosis of T2DM who were experiencing inadequate glycemic control on their current regimen of diet and exercise or their antidiabetic therapy of metformin, TZD, SU, or any combination of these OAD medications.

[3] = Week 26, Moderate RI (eGFR 30-59)
[4] = Week 26, Severe RI (eGFR 15-29)

Compound: CCCCCCCCCCCCCCCC(=O)N[C@@H](CCC(=O)NCCCC[C@H](NC(=O)[C@H](C)NC(=O)[C@H](C)NC(=O)[C@H](CCC(N)=O)NC(=O)CNC(=O)[C@H](CCC(=O)O)NC(=O)[C@H](CC(C)C)NC(=O)[C@H](Cc1ccc(O)cc1)NC(=O)[C@H](CO)NC(=O)[C@H](CO)NC(=O)[C@@H](NC(=O)[C@H](CC(=O)O)NC(=O)[C@H](CO)NC(=O)[C@@H](NC(=O)[C@H](Cc1ccccc1)NC(=O)[C@@H](NC(=O)CNC(=O)[C@H](CCC(=O)O)NC(=O)[C@H](C)NC(=O)[C@@H](N)Cc1cnc[nH]1)[C@@H](C)O)[C@@H](C)O)C(C)C)C(=O)N[C@@H](CCC(=O)O)C(=O)N[C@@H](Cc1ccccc1)C(=O)N[C@H](C(=O)N[C@@H](C)C(=O)N[C@@H](Cc1c[nH]c2ccccc12)C(=O)N[C@@H](CC(C)C)C(=O)N[C@H](C(=O)N[C@@H](CCCNC(=N)N)C(=O)NCC(=O)N[C@@H](CCCNC(=N)N)C(=O)NCC(=O)O)C(C)C)[C@@H](C)CC)C(=O)O [liraglutide, reference compound]
- exposure vs group with normal renal function [1]: reduced exposure
- nausea, percentage [2]: 29%
- vomiting, percentage [2]: 9%

Compound: N[C@@H](CC(=O)N1CCn2c(nnc2C(F)(F)F)C1)Cc1cc(F)c(F)cc1F [Sitagliptin, sitagliptin, reference compound]
- Week 26 A1C, mean (patients with T2D and RI; Any RI (eGFR 15-89)): 7.68%
- Week 26 A1C, mean (patients with T2D and RI; Mild RI (eGFR 60-89 mL/min/1.73 m2)): 7.50%
- Week 26 A1C, mean (patients with T2D and RI; Moderate RI (eGFR 30-59)): 7.91%
- Week 26 A1C, mean (patients with T2D and RI; Severe RI (eGFR 15-29)): 7.67%
- A1C<7% achieved, patients (patients with T2D and RI; Week 26): 30.5%
- FPG change (patients with T2D and RI; Week 26): -3.9 mg/dL
- weight change (patients with T2D and RI; Week 26): -0.2 kg
- Model-adjusted change from baseline A1C, LS mean (SE) (patients with T2D and RI; Week 26, Any RI (eGFR 15-89)): −0.52%
- Model-adjusted change from baseline A1C, LS mean (SE) (patients with T2D and RI; Week 26, Mild RI (eGFR 60-89)): −0.67%
- Model-adjusted change from baseline A1C, LS mean (SE) (patients with T2D and RI; [3]): −0.31%
- Model-adjusted change from baseline A1C, LS mean (SE) (patients with T2D and RI; [4]): −0.61%
- Change from baseline A1C, mean (SD) (patients with T2D and RI; Week 26, Any RI (eGFR 15-89)): −0.54%
- Change from baseline A1C, mean (SD) (patients with T2D and RI; Week 26, Mild RI (eGFR 60-89)): −0.66%
- Change from baseline A1C, mean (SD) (patients with T2D and RI; [3]): −0.37%
- Change from baseline A1C, mean (SD) (patients with T2D and RI; [4]): −0.65%
- Adverse Event rate: diarrhea (patients with T2D and RI; both, human, in vivo, 26 weeks): 6.1%
- Adverse Event rate: nausea (patients with T2D and RI; both, human, in vivo, 26 weeks): 2.8%
- Adverse Event rate: vomiting (patients with T2D and RI; both, human, in vivo, 26 weeks): 0.8%
- Hypoglycemia rate (patients with T2D and RI; both, human, in vivo, 26 weeks): 13.4%
- Hypoglycemia, severe (number) (patients with T2D and RI; both, human, in vivo, 26 weeks): 2
- Injection site reaction rate (patients with T2D and RI; both, human, in vivo, 26 weeks): 2.8%
- On-therapy adverse event: Constipation (patients with T2D and RI; both, human, in vivo, 26 weeks): 5 (2.0) n (%)
- On-therapy adverse event: Diarrhea (patients with T2D and RI; both, human, in vivo, 26 weeks): 15 (6.1) n (%)
- On-therapy adverse event: Hypertension (patients with T2D and RI; both, human, in vivo, 26 weeks): 15 (6.1) n (%)
- On-therapy adverse event: Nasopharyngitis (patients with T2D and RI; both, human, in vivo, 26 weeks): 16 (6.5) n (%)
- On-therapy adverse event: Upper respiratory tract infection (patients with T2D and RI; both, human, in vivo, 26 weeks): 16 (6.5) n (%)
- On-therapy adverse event: Urinary tract infection (patients with T2D and RI; both, human, in vivo, 26 weeks): 15 (6.1) n (%)
